Assay results reported in US20240124444A1 (Celgene Corporation, priority 2020, published 2024).

System: C. parvum strain UGA1
Experiment: C. parvum growth inhibition assay (Nluc luminescence in HCT-8 cells)
Assay type: cell-based, Cryptosporidium parvum
Conditions: Cryptosporidium parvum; for EC50: HCT-8, 48 h, C. parvum growth inhibition in HCT-8 cells, 48 hours, 6 concentrations 10-0.04 μM; for inhibition at 1 µM / inhibition at 10 µM: HCT-8; for inhibition at 1 µM: single point inhibition @ 1 uM, read-out: % inh @ 1 uM C. parvum; for inhibition at 10 µM: single point inhibition @ 10 uM, read-out: % inh @ 10 uM C. parvum

| SMILES | EC50 [µM] | inhibition at 1 µM [%] | inhibition at 10 µM [%] |
| --- | --- | --- | --- |
| c1cncc(-c2cc3cnc(NC4CCOCC4)cc3[nH]2)c1 [Example 72, 2-(pyridin-3-yl)-N-(tetrahydro-2H-pyran-4-yl)-1H-pyrrolo[3,2-c]pyridin-6-amine] | > 1 | 0 to 33 | 0 to 33 |
| Cc1ccnc(-c2cc3cnc(NC(=O)C4CC4)cc3n2C)c1 [Example 73, N-(1-methyl-2-(4-methylpyridin-2-yl)-1H-pyrrolo[3,2-c]pyridin-6-yl)cyclopropanecarboxamide] | > 1 | – | – |
| Cn1c(-c2cnco2)cc2cnc(NC(=O)C3CC3)cc21 [Example 74, N-(1-methyl-2-(oxazol-5-yl)-1H-pyrrolo[3,2-c]pyridin-6-y)cyclopropanecarboxamide] | > 1 | – | – |
| Cc1cc(-c2cc3cnc(NC(=O)C4CC4)cc3n2CCN)ncn1 [Example 75, N-(1-(2-aminoethyl)-2-(6-methylpyrimidin-4-yl)-1H-pyrrolo[3,2-c]pyridin-6-yl)cyclopropanecarboxamide] | > 1 | – | – |
| O=C(Nc1cc2[nH]c(C(F)(F)F)cc2cn1)C1CCC1 [Example 76, N-(2-(trifluoromethyl)-1H-pyrrolo[3,2-c]pyridin-6-yl)cyclobutanecarboxamide] | > 1 | – | – |
| Cn1c(C(F)(F)F)cc2cnc(NC(=O)C3CC3)cc21 [Example 77, N-(1-methyl-2-(trifluoromethyl)-1H-pyrrolo[3,2-c]pyridin-6-yl)cyclopropanecarboxamide] | > 1 | – | – |
| CC(C)C(=O)Nc1cc2[nH]c(-c3ccncc3)cc2cn1 [Example 78, N-(2-(pyridin-4-yl)-1H-pyrrolo[3,2-c]pyridin-6-yl)isobutyramide] | > 1 | 33 to 66 | 67 to 100 |
| N#Cc1cc(-c2cc3cnc(Nc4cccc(-c5nnc[nH]5)c4)cc3[nH]2)ccn1 [Example 79, 4-(6-(3-(4H-1,2,4-triazol-3-yl)phenylamino)-1H-pyrrolo[3,2-c]pyridin-2-yl)picolinonitrile] | > 1 | 33 to 66 | 67 to 100 |
| Cn1cc(C(=O)Nc2cc3c(cn2)cc(-c2ccnc(NCC(F)(F)F)n2)n3CCO)cn1 [Example 80, N-(1-(2-hydroxyethyl)-2-(2-(2,2,2-trifluoroethylamino)pyrimidin-4-yl)-1H-pyrrolo[3,2-c]pyridin-6-yl)-1-methyl-1H-pyrazole-4-carboxamide] | > 1 | 0 to 33 | 33 to 66 |
| Cc1cc(-c2cc3cnc(N)cc3[nH]2)ccn1 [Example 81, 2-(2-methylpyridin-4-yl)-1H-pyrrolo[3,2-c]pyridin-6-amine] | > 1 | 0 to 33 | 33 to 66 |
| Cn1cc(C(=O)Nc2cc3[nH]c(-c4cnc[nH]4)cc3cn2)cn1 [Example 82, N-(2-(1H-imidazol-5-yl)-1H-pyrrolo[3,2-c]pyridin-6-yl)-1-methyl-1H-pyrazole-4-carboxamide] | > 1 | 0 to 33 | 33 to 66 |
| Cc1cc(-c2cc3cnc(NC(=O)C4CC4)cc3n2C)ccn1 [Example 83, N-(1-methyl-2-(2-methylpyridin-4-yl)-1H-pyrrolo[3,2-c]pyridin-6-yl)cyclopropanecarboxamide] | > 1 | 0 to 33 | 0 to 33 |
| Cc1cc(-c2cc3cnc(NC(=O)c4cnn(C5CCCC5)c4)cc3[nH]2)ccn1 [Example 84, 1-cyclopentyl-N-(2-(2-methylpyridin-4-yl)-1H-pyrrolo[3,2-c]pyridin-6-yl)-1H-pyrazole-4-carboxamide] | > 1 | 67 to 100 | 0 to 33 |
| Cn1cc(C(=O)Nc2cc3[nH]c(-c4ccnc(O[C@H]5CC[C@H](O)CC5)n4)cc3cn2)cn1 [Example 85, N-(2-(2-((1r,4r)-4-hydroxycyclohexyloxy)pyrimidin-4-yl)-1H-pyrrolo[3,2-c]pyridin-6-yl)-1-methyl-1H-pyrazole-4-carboxamide] | > 1 | 67 to 100 | 0 to 33 |
| Cc1cc(-c2cc3cnc(N(C)C(=O)C4CC4)cc3[nH]2)ccn1 [Example 86, N-methyl-N-(2-(2-methylpyridin-4-yl)-1H-pyrrolo[3,2-c]pyridin-6-yl)cyclopropanecarboxamide] | > 1 | 33 to 66 | 0 to 33 |
| COc1nccc(-c2cc3cnc(NC(=O)CC4COC4)cc3n2C)n1 [Example 87, N-(2-(2-methoxypyrimidin-4-yl)-1-methyl-1H-pyrrolo[3,2-c]pyridin-6-yl)-2-(oxetan-3-yl)acetamide] | > 1 | 33 to 66 | 0 to 33 |
| Cn1cc(C(=O)Nc2cc3[nH]c(C4CC4)cc3cn2)cn1 [Example 88, N-(2-cyclopropyl-1H-pyrrolo[3,2-c]pyridin-6-yl)-1-methyl-1H-pyrazole-4-carboxamide] | > 1 | 33 to 66 | 0 to 33 |
| Cn1cc(C(=O)Nc2cc3[nH]c(CCCO)cc3cn2)cn1 [Example 89, N-(2-(3-hydroxypropyl)-1H-pyrrolo[3,2-c]pyridin-6-yl)-1-methyl-1H-pyrazole-4-carboxamide] | > 1 | 0 to 33 | 0 to 33 |

| SMILES | EC50 [µM] | inhibition at 1 µM [%] | inhibition at 10 µM [%] |
| --- | --- | --- | --- |
| Cn1cc(C(=O)Nc2cc3[nH]c(-c4cncn4C)cc3cn2)cn1 [Example 90, 1-methyl-N-(2-(1-methyl-1H-imidazol-5-yl)-1H-pyrrolo[3,2-c]pyridin-6-yl)-1H-pyrazole-4-carboxamide] | > 1 | 33 to 66 | 0 to 33 |
| O=C(CC1COC1)Nc1cc2[nH]c(-c3ccnc(C(F)(F)F)n3)cc2cn1 [Example 91, 2-(oxetan-3-yl)-N-(2-(2-(trifluoromethyl)pyrimidin-4-yl)-1H-pyrrolo[3,2-c]pyridin-6-yl)acetamide] | > 1 | 0 to 33 | 0 to 33 |
| O=C(Nc1cc2[nH]c(-c3ccnc(C(F)(F)F)n3)cc2cn1)[C@H]1C[C@H](O)C1 [Example 92, (1r,3r)-3-hydroxy-N-(2-(2-(trifluoromethyl)pyrimidin-4-yl)-1H-pyrrolo[3,2-c]pyridin-6-yl)cyclobutanecarboxamide] | > 1 | 33 to 66 | 0 to 33 |
| Cc1cc(-c2cc3cnc(NC(=O)C4CC4)cc3n2CCO)ccn1 [Example 93, N-(1-(2-hydroxyethyl)-2-(2-methylpyridin-4-yl)-1H-pyrrolo[3,2-c]pyridin-6-yl)cyclopropanecarboxamide] | > 1 | 0 to 33 | 0 to 33 |
| O=C(Nc1cc2[nH]c(C3CCOCC3)cc2cn1)C1CC1 [Example 94, N-(2-(tetrahydro-2H-pyran-4-yl)-1H-pyrrolo[3,2-c]pyridin-6-yl)cyclopropanecarboxamide] | > 1 | 0 to 33 | 0 to 33 |
| Cc1cc(-c2cc3cnc(NC(=O)C4(C)CC4)cc3[nH]2)ccn1 [Example 95, 1-methyl-N-(2-(2-methylpyridin-4-yl)-1H-pyrrolo[3,2-c]pyridin-6-yl)cyclopropanecarboxamide] | > 1 | – | – |
| Cc1cc(-c2cc3cnc(NC(=N)C4CC4)cc3[nH]2)ccn1 [Example 96, N-(2-(2-methylpyridin-4-yl)-1H-pyrrolo[3,2-c]pyridin-6-yl)cyclopropanecarboximidamide] | > 1 | – | – |
| Cc1cc(-c2cc3cnc(NS(=O)(=O)C4CC4)cc3[nH]2)ccn1 [Example 97, N-(2-(2-methylpyridin-4-yl)-1H-pyrrolo[3,2-c]pyridin-6-yl)cyclopropanesulfonamide] | > 1 | – | – |
| Cc1cc(-c2cc3cnc(NC(=O)C4CCC4)cc3[nH]2)ncn1 [Example 98, N-(2-(6-methylpyrimidin-4-yl)-1H-pyrrolo[3,2-c]pyridin-6-yl)cyclobutanecarboxamide] | > 1 | – | – |
| Cc1nccc(-c2cc3cnc(NC(=O)C4CCC4)cc3[nH]2)n1 [Example 99, N-(2-(2-methylpyrimidin-4-yl)-1H-pyrrolo[3,2-c]pyridin-6-yl)cyclobutanecarboxamide] | > 1 | – | – |
| Cc1nccc(-c2cc3cnc(NC(=O)C4CC4)cc3n2C)n1 [Example 100, N-(1-methyl-2-(2-methylpyrimidin-4-yl)-1H-pyrrolo[3,2-c]pyridin-6-yl)cyclopropanecarboxamide] | > 1 | – | – |
| Cc1ncc(-c2cc3cnc(NC(=O)C4CC4)cc3[nH]2)s1 [Example 101, N-(2-(2-methylthiazol-5-yl)-1H-pyrrolo[3,2-c]pyridin-6-yl)cyclopropanecarboxamide] | > 1 | – | – |
| Cn1cc(-c2cc3cnc(NC(=O)C4CC4)cc3n2C)cn1 [Example 102, N-(1-methyl-2-(1-methyl-1H-pyrazol-4-yl)-1H-pyrrolo[3,2-c]pyridin-6-yl)cyclopropanecarboxamide] | > 1 | – | – |
| O=C(Nc1cc2[nH]c(-c3cnc(C(F)(F)F)s3)cc2cn1)C1CC1 [Example 103, N-(2-(2-(trifluoromethyl)thiazol-5-yl)-1H-pyrrolo[3,2-c]pyridin-6-yl)cyclopropanecarboxamide] | > 1 | – | – |
| O=C(Nc1cc2[nH]c(-c3nc(C(F)(F)F)cs3)cc2cn1)C1CC1 [Example 104, N-(2-(4-(trifluoromethyl)thiazol-2-yl)-1H-pyrrolo[3,2-c]pyridin-6-yl)cyclopropanecarboxamide] | > 1 | – | – |
| O=C(Nc1cc2[nH]c(C(F)(F)F)cc2cn1)C1CCOCC1 [Example 105, N-(2-(trifluoromethyl)-1H-pyrrolo[3,2-c]pyridin-6-yl)tetrahydro-2H-pyran-4-carboxamide] | > 1 | – | – |
| O=S(=O)(Nc1cc2[nH]c(C(F)(F)F)cc2cn1)C1CC1 [Example 106, N-(2-(trifluoromethyl)-1H-pyrrolo[3,2-c]pyridin-6-yl)cyclopropanesulfonamide] | > 1 | – | – |
| COC(=O)Nc1cc2[nH]c(C(F)(F)F)cc2cn1 [Example 107, methyl 2-(trifluoromethyl)-1H-pyrrolo[3,2-c]pyridin-6-ylcarbamate] | > 1 | – | – |
